What follows are compounds tested against T1, Axl (Homo sapiens, UniProt P30530) (assay: Phospho-Akt in-cell Western assay (inhibition of Axl activity)). Settings: Table 2; Hela cells, Axl antibody cross-linking stimulation, phospho-Akt chemiluminescence.
T1 construct: endogenous in cells; host or cells: HeLa cells
T1 sequence (P30530 26-894): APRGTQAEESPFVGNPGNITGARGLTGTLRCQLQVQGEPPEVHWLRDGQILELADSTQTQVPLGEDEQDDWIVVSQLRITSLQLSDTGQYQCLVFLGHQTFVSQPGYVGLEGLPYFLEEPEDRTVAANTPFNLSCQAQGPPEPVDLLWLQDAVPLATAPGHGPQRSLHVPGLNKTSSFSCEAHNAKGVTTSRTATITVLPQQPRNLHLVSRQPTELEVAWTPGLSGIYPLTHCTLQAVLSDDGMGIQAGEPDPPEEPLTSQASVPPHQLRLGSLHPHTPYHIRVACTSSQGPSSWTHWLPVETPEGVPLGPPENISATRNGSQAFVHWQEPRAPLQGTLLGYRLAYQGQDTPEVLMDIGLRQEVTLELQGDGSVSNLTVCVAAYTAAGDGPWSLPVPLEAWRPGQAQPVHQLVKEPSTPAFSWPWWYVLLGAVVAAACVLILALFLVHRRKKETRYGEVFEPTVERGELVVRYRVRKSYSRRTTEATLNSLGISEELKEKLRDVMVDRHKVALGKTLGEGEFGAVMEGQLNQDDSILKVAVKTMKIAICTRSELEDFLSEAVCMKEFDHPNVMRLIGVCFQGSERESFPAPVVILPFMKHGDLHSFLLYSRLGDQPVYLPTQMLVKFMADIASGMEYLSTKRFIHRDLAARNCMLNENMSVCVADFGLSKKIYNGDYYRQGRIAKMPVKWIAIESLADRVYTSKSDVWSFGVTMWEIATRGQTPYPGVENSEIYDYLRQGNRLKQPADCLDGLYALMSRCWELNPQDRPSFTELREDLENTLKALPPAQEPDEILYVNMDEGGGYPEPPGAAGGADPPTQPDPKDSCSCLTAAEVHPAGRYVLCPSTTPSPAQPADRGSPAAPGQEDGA
Assay type: cell-based
How it was run: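 HeLa cells on poly-L-lysine, starved 24 h in 0.5% FCS DMEM with Axl/Fc 500 ng/mL, pre-treated with compound 1 h at 37° C. Axl stimulated 5 min by anti-Axl/anti-mouse antibody cross-linking. Fixed cells probed with anti-phospho-Akt and HRP secondary, chemiluminescence read.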

Row | IC50 | SMILES
1 | 1 to 10 µM | Nc1nc(Nc2ccc3c(c2)OCCO3)n(C(=O)c2ccccc2)n1 [compound 92, 3-amino-5-(1,4-benzodioxan-6-yl)amino-1-phenylcarbonyl-1H-1,2,4-triazole]

Same assay, conditions: Table 5; Hela cells, Axl antibody cross-linking stimulation, phospho-Akt chemiluminescence

Row | IC50 | SMILES
2 | > 20 µM | CCOC(=O)c1cc2cc(Nc3nc(N)n(C(=O)c4cccc(OC(C)C)c4)n3)ccc2o1 [compound 103, 5-amino-3-(2-(ethoxycarbonyl)benzofuran-5-yl)amino-1-(3-(iso-propoxy)phenyl)carbonyl-1H-1,2,4-triazole]

Same assay, conditions: Table 8; Hela cells, Axl antibody cross-linking stimulation, phospho-Akt chemiluminescence

Row | IC50 | SMILES
3 | > 20 µM | COC(=O)n1nc(N)nc1Nc1ccc2c(c1)OCCO2 [compound 93, 3-amino-5-(1,4-benzodioxan-6-yl)amino-1-methoxycarbonyl-1H-1,2,4-triazole]

Same assay, conditions: inhibition of Axl activity, Table 1

Row | IC50 | SMILES
4 | > 20 µM | Nc1nc(Nc2ccc3c(c2)OCCO3)nn1C(=O)c1ccccc1Cl [compound 94, 5-amino-1-(2-(chloro)phenyl)carbonyl-3-(1,4-benzodioxan-6-yl)amino-1H-1,2,4-triazole]
5 | 1 to 10 µM | Nc1nc(Nc2ccc3c(c2)OCCO3)nn1C(=O)c1ccc(Cl)cc1 [compound 95, 5-amino-1-(4-(chloro)phenyl)carbonyl-3-(1,4-benzodioxan-6-yl)amino-1H-1,2,4-triazole]
6 | 1 to 10 µM | Cc1cccc(C(=O)n2nc(Nc3ccc4c(c3)OCCO4)nc2N)c1 [compound 96, 5-amino-3-(1,4-benzodioxan-6-yl)amino-1-(3-(methyl)phenyl)carbonyl-1H-1,2,4-triazole]
7 | 10 to 20 µM | Cc1ccccc1C(=O)n1nc(Nc2ccc3c(c2)OCCO3)nc1N [compound 97, 5-amino-3-(1,4-benzodioxan-6-yl)amino-1-(2-(methyl)phenyl)carbonyl-1H-1,2,4-triazole]
8 | 1 to 10 µM | COc1cccc(C(=O)n2nc(Nc3ccc4c(c3)OCCO4)nc2N)c1 [compound 98, 5-amino-3-(1,4-benzodioxan-6-yl)amino-1-(3-(methoxy)phenyl)carbonyl-1H-1,2,4-triazole]
9 | 10 to 20 µM | Nc1nc(Nc2ccc3c(c2)OCCO3)nn1C(=O)c1ccccc1F [compound 99, 5-amino-3-(1,4-benzodioxan-6-yl)amino-1-(2-(fluoro)phenyl)carbonyl-1H-1,2,4-triazole]
10 | > 20 µM | Nc1nc(Nc2ccc3c(c2)OCCO3)nn1C(=O)c1ccc(F)cc1 [compound 100, 5-amino-3-(1,4-benzodioxan-6-yl)amino-1-(4-(fluoro)phenyl)carbonyl-1H-1,2,4-triazole]
11 | 1 to 10 µM | Nc1nc(Nc2ccc3c(c2)OCCO3)nn1C(=O)c1cccc(Cl)c1 [compound 101, 5-amino-1-(3-(chloro)phenyl)carbonyl-3-(1,4-benzodioxan-6-yl)amino-1H-1,2,4-triazole]
12 | 1 to 10 µM | COc1ccc(C(=O)n2nc(Nc3ccc4c(c3)OCCO4)nc2N)cc1 [compound 102, 5-amino-3-(1,4-benzodioxan-6-yl)amino-1-(4-(methyloxy)phenyl)carbonyl-1H-1,2,4-triazole]
13 | 1 to 10 µM | Cc1ccc(C(=O)n2nc(Nc3ccc4c(c3)OCCO4)nc2N)cc1 [compound 104, 5-amino-3-(1,4-benzodioxan-6-yl)amino-1-(4-(methyl)phenyl)carbonyl-1H-1,2,4-triazole]
14 | > 20 µM | Nc1nc(Nc2ccc3c(c2)OCCO3)nn1C(=O)c1cccc(F)c1 [compound 105, 5-amino-3-(1,4-benzodioxan-6-yl)amino-1-(3-(fluoro)phenyl)carbonyl-1H-1,2,4-triazole]
15 | > 20 µM | COc1ccccc1C(=O)n1nc(Nc2ccc3c(c2)OCCO3)nc1N [compound 106, 5-amino-3-(1,4-benzodioxan-6-yl)amino-1-(2-(methyloxy)phenyl)carbonyl-1H-1,2,4-triazole]
16 | 1 to 10 µM | CC(C)Oc1ccc(Nc2nc(N)n(C(=O)c3ccc(OC(C)C)cc3)n2)cc1 [compound 111, 5-amino-3-[4-(iso-propoxy)phenylamino]-1-(4-(iso-propoxy)phenyl)carbonyl-1H-1,2,4-triazole]
17 | 1 to 10 µM | CC(C)Oc1cccc(C(=O)n2nc(Nc3ccc4c(c3)OCCO4)nc2N)c1 [compound 112, 5-amino-3-(1,4-benzodioxan-6-yl)amino-1-(3-(iso-propoxy)phenyl)carbonyl-1H-1,2,4-triazole]
18 | 1 to 10 µM | CC(C)Oc1ccc(C(=O)n2nc(Nc3ccc4c(c3)OCCO4)nc2N)cc1 [compound 113, 5-amino-3-(1,4-benzodioxan-6-yl)amino-1-(4-(iso-propoxy)phenyl)carbonyl-1H-1,2,4-triazole]
19 | 1 to 10 µM | CCOc1ccc(C(=O)n2nc(Nc3ccc4c(c3)OCCO4)nc2N)cc1 [compound 114]
20 | 1 to 10 µM | COc1ccc(Nc2nc(N)n(C(=O)c3ccc(OC(C)C)cc3)n2)cc1 [compound 117, 5-amino-1-(4-(iso-propoxy)phenyl)carbonyl-3-[4-(methoxy)phenylamino]-1H-1,2,4-triazole]
21 | 1 to 10 µM | CCOc1ccc(Nc2nc(N)n(C(=O)c3ccc(OC(C)C)cc3)n2)cc1 [compound 118, 5-amino-3-[4-(ethoxy)phenylamino]-1-(4-(iso-propoxy)phenyl)carbonyl-1H-1,2,4-triazole]
22 | > 20 µM | Nc1nc(Nc2ccc3c(c2)OCCO3)nn1C(=O)c1ccc(OC2CCCC2)cc1 [compound 120]
23 | 1 to 10 µM | COc1cccc(Nc2nc(N)n(C(=O)c3ccc(OC(C)C)cc3)n2)c1 [compound 121, 5-amino-1-(4-(iso-propoxy)phenyl)carbonyl-3-[3-(methoxy)phenylamino]-1H-1,2,4-triazole]
24 | 1 to 10 µM | CC(C)Oc1ccc(C(=O)n2nc(Nc3cccc(OC(C)C)c3)nc2N)cc1 [compound 122, 5-amino-3-[3-(iso-propoxy)phenylamino]-1-(4-(iso-propoxy)phenyl)carbonyl-1H-1,2,4-triazole]
25 | 10 to 20 µM | Cc1ccc(C(=O)n2nc(Nc3ccc(F)cc3)nc2N)cc1 [compound 123, 5-amino-3-[4-(fluoro)phenylamino]-1-(4-(methyl)phenyl)carbonyl-1H-1,2,4-triazole]
26 | 10 to 20 µM | Cc1ccc(C(=O)n2nc(Nc3cccc(F)c3)nc2N)cc1 [compound 124, 5-amino-3-[3-(fluoro)phenylamino]-1-(4-(methyl)phenyl)carbonyl-1H-1,2,4-triazole]
27 | 1 to 10 µM | CCOc1cccc(Nc2nc(N)n(C(=O)c3ccc(OC(C)C)cc3)n2)c1 [compound 125, 5-amino-3-[3-(ethoxy)phenylamino]-1-(4-(iso-propoxy)phenyl)carbonyl-1H-1,2,4-triazole]
28 | 1 to 10 µM | COC(=O)COc1ccc(C(=O)n2nc(Nc3ccc4c(c3)OCCO4)nc2N)cc1 [compound 126, 5-amino-3-(1,4-benzodioxan-6-yl)amino-1-[4-(methoxycarbonylmethoxy)phenyl)carbonyl-1H-1,2,4-triazole]
29 | > 20 µM | CCOc1cccc(C(=O)n2nc(Nc3ccc4c(c3)OCCO4)nc2N)c1 [compound 128, 5-amino-1-(3-(ethoxy)phenyl)carbonyl-3-(1,4-benzodioxan-6-yl)amino-1H-1,2,4-triazole]
30 | > 20 µM | Cc1ccc(C(=O)n2nc(Nc3ccccc3F)nc2N)cc1 [compound 129, 5-amino-3-[2-(fluoro)phenylamino]-1-(4-(methyl)phenyl)carbonyl-1H-1,2,4-triazole]

Row | SMILES | IC50
31 | CC(=O)Oc1ccc(C(=O)n2nc(Nc3ccc4c(c3)OCCO4)nc2N)cc1 [compound 109, 1-(4-(Acetoxy)phenyl)carbonyl-5-amino-3-(1,4-benzodioxan-6-yl)amino-1H-1,2,4-triazole] | 1 to 10 µM
32 | CC(=O)Oc1cccc(C(=O)n2nc(Nc3ccc4c(c3)OCCO4)nc2N)c1 [compound 110, 1-(3-(Acetoxy)phenyl)carbonyl-5-amino-3-(1,4-benzodioxan-6-yl)amino-1H-1,2,4-triazole] | 1 to 10 µM
33 | CC(C)Oc1ccc(C(=O)n2nc(Nc3cccc(OC4CCCC4)c3)nc2N)cc1 [compound 116, 5-amino-3-[3-(cyclopentoxy)phenylamino]-1-(4-(iso-propoxy)phenyl)carbonyl-1H-1,2,4-triazole] | > 20 µM
34 | CC(=O)Oc1ccccc1C(=O)n1nc(Nc2ccc3c(c2)OCCO3)nc1N [compound 119, 1-(2-(acetoxy)phenyl)carbonyl-5-amino-3-(1,4-benzodioxan-6-yl)amino-1H-1,2,4-triazole] | 1 to 10 µM
35 | Nc1nc(Nc2ccc3c(c2)OCCO3)nn1C(=O)c1cccc(OC2CCCC2)c1 [compound 127, 5-amino-1-(3-(cyclopentoxy)phenyl)carbonyl-3-(1,4-benzodioxan-6-yl)amino-1H-1,2,4-triazole] | 1 to 10 µM

Reference: patent US8389557B2, “Triazole derivatives useful as Axl inhibitors” (Rigel Pharmaceuticals, Inc., priority 2005, dated 2013)
